# According to patent publication US7968526B2, “Antisense oligonucleotides directed to ribonucleotide reductase R2 and uses thereof in the treatment of cancer” (Lorus Therapeutics Inc., priority 2003, dated 2011):
# What was measured:
# [1] = system: PC-3 human prostatic cancer cells; experiment: PC-3 prostatic tumour xenograft in SCID mice, combination with mitoxantrone (1.4); format: in vivo, human cells in mice; settings: PC-3, SCID mice; SEQ ID NO:1 10 mg/kg i.v. every other day 18 times; mitoxantrone 2 mg/kg i.v. once
# Method: After 52 days the mice were sacrificed and the tumours weighed. […] In both experiments, PC-3 human prostatic cancer cells (1×10^7 cells in 100 μl of PBS) were subcutaneously injected into the right flank of 6-7 weeks old male SCID mice. After the size of tumour reached an approximate volume of 50 mm^3, 14 days post tumour cell injection, SEQ ID NO: 1 was administered by bolus infusion into the tail vein every other day at 10 mg/kg 18 times (FIG. 4A) or 17 times (FIG. 4B), respectively. Control animals received saline alone for the same period. Antitumour effect of SEQ ID NO:1 was further compared to that of mitoxantrone (novantrone) alone or in combination. Mitoxantrone was administered intravenously once at the beginning of the treatments at a dose of 2 mg/kg (FIG. 4A) or once a week for four weeks at a reduced dose of 0.8 mg/kg (FIG. 4B). All treatments were stopped at day 50 (FIG. 4A) or 48 (FIG. 4B), respectively. A day after the last treatment, tumours were excised from the animals and their weights were measured. […] In both experiments, DU145 human prostatic cancer cells (1×10^7 cells in 100 μl of PBS) were subcutaneously injected into the right flank of 6-7 weeks old male SCID mice. After the size of tumour reached an approximate volume of 50 mm^3, 13 (FIG. 5A) or 11 (FIG. 5B) days post tumour cell injection, SEQ ID NO:1 was administered by bolus infusion into the tail vein every other day at 10 mg/kg 15 times (FIG. 5A) or 14 times (FIG. 5B), respectively. Control animals received saline alone for the same period. Antitumour effect of SEQ ID NO:1 was further compared to that of mitoxantrone (novantrone) alone or in combination. Mitoxantrone was administered intravenously once at the beginning of the treatments at a dose of 2 mg/kg (FIG. 5A) or once a week for four weeks at a reduced dose of 0.8 mg/kg (FIG. 5B). All treatments were stopped at day 42 (FIG. 5A) or 38 (FIG. 5B), respectively. A day after the last treatment, tumours were excised from the animals and their weights were measured.
# [2] = system: Human taxol-resistant promyelocytic leukaemia cells (HL-60); experiment: HL-60 taxol-resistant promyelocytic leukaemia tumour in SCID mice (2.7); format: in vivo, human cells in mice; settings: SEQ ID NO:1 10 mg/kg i.v. every other day
# Method: BxPC-3 is a gemcitabine resistant call line. […] Gemcitabine was administered intravenously every three days at a dose of 100 mg/kg. Antitumour activities were estimated by the inhibition of tumour volume, which was measured with caliper. Each point represents mean tumour volume calculated from 10 animals per experimental group. […] Hela S3 is a hydroxyurea resistant cell line. […] Hydroxyurea was administered intraperitoneally every day at a dose of 250 mg/kg for 10 days. Cisplatin was administered intravenously once a week for three weeks at a dose of 4 mg/kg. Antitumour activities were estimated by the inhibition of tumour volume, which was measured with caliper. Each point represents mean tumour volume calculated from 10 animals per experimental group. […] Cisplatin was administered intravenously once a week for three weeks at a dose of 4 mg/kg. Taxol was administered intravenously once a week for three weeks at a dose of 10 mg/kg. Antitumour activities were estimated by the inhibition of tumour volume, which was measured with caliper. Each point represents mean tumour volume calculated from 10 animals per experimental group. […] Taxol was administered i.p. once a week at a dose of 10 mg/kg. Antitumour activities were estimated by the inhibition of tumour volume (FIG. 12A), which was measured with calipers. Each point represents mean tumour volume calculated from 10 animals per experimental group. Animals were sacrificed and tumour weights taken at the end of the study (FIG. 12C). […] Cisplatin was administered intravenously once a week for four weeks at a dose of 4 mg/kg. Taxol was administered intravenously once a week for four weeks at a dose of 20 mg/kg. Antitumour activities were estimated by the inhibition of tumour volume, which was measured with caliper. Each point represents mean tumour volume calculated from 9-10 animals per experimental group. […] Cisplatin was administered intravenously once a week for four weeks at a dose of 4 mg/kg. Antitumour activities were estimated by the inhibition of tumour volume, which was measured with caliper. Each point represents mean tumour volume calculated from 10 animals per experimental group. At the end of the study the animals were sacrificed and tumours weighed. […] Taxol was administered i.p. once a week at a dose of 10 mg/kg. Anti-tumour activity was estimated by the inhibition of tumour volume, which was measured with caliper. Each point represents mean tumour volume calculated from 10 animals per experimental group. […] Antitumour activities were estimated by the inhibition of tumour volume, which was measured with caliper. Each point represents mean tumour volume calculated from 10 animals per experimental group. Tumour weights were measured after animals were sacrificed at the end of the treatment. […]
substance,measurement,setting,value
"5′-GGCTAAATCGCTCCACCAAG-3′ (all phosphorothioate, sugars by position and methylation of C not given here) [SEQ ID NO: 1, fully phosphorothioated antisense oligonucleotide that hybridizes to the coding region of R2 mRNA]","Antitumour effect (tumour weight, FIG. 4A)",[1],significant delay of tumour growth compared to saline control
same,Tumour weight as % of saline control,"[2]; HL-60 (leukemia), Taxol resistant, SCID, Taxol 10 mg/kg i.p. weekly",38%
same,Antitumour effect (FIG. 15),"[2]; HL-60 taxol-resistant, SCID mice, taxol 10 mg/kg i.p. weekly",significant reduction of tumour weight compared to saline control
